Test results reported in PubChem BioAssay (NCI).
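Abbreviation: GI50, concentration required for 50% inhibition of growth. TGI denotes the concentration required for complete inhibition of growth.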

Key:
Assay in all cases: growth of human tumour cells (NCI), 384-well format
[1] = test system: 786-0 renal
[2] = test system: ACHN renal
[3] = test system: CAKI-1 renal
[4] = test system: DU-145 prostate
[5] = test system: IGROV1 ovarian
[6] = test system: M14 melanoma
[7] = test system: MCF7 breast
[8] = test system: MDA-MB-468 breast
[9] = test system: RPMI-8226 leukemia
[10] = test system: SK-MEL-28 melanoma
[11] = test system: SK-OV-3 ovarian
[12] = test system: T-47D breast
[13] = test system: TK-10 renal

Row | Compound | GI50 [1] [µM] | TGI [1] [µM] | GI50 [2] [µM] | TGI [2] [µM] | GI50 [3] [µM] | TGI [3] [µM] | GI50 [4] [µM] | TGI [4] [µM] | GI50 [5] [µM] | TGI [5] [µM] | GI50 [6] [µM] | TGI [6] [µM] | GI50 [7] [µM] | TGI [7] [µM] | GI50 [8] [µM] | TGI [8] [µM] | GI50 [9] [µM] | TGI [9] [µM] | GI50 [10] [µM] | TGI [10] [µM] | other results
1 | Cc1cc(F)c(C(=O)Nc2cccc(-c3nncn3C(C)C)n2)cc1-n1cnc(C2CC2)c1 | 15 | 40.4 | 11.5 | 34.8 | 12.6 | 31.4 | 6.87 | 27.8 | 9.78 | 40.5 | 14.5 | 28.7 | 12.3 | 25.9 | 3.39 | 10.5 | 2.09 | 5.9 | 17.8 | 35 | GI50 [11]: 17.4 µM; TGI [11]: 38.6 µM; GI50 [12]: 3.42 µM; TGI [12]: 14.6 µM; GI50 [13]: 14.8 µM; TGI [13]: > 68.2 µM
2 | C[C@@H](Nc1nc(N[C@H](C)C(F)(F)F)nc(-c2cccc(Cl)n2)n1)C(F)(F)F | 33.2 | > 76.3 | > 100 | > 100 | 33.6 | > 73.8 | 34.1 | > 100 | > 100 | > 100 | > 100 | > 100 | 14.5 | > 100 | 20.9 | > 90.2 | > 75.8 | > 100 | > 100 | > 100 | GI50 [11]: > 100 µM; TGI [11]: > 100 µM; GI50 [12]: > 84.3 µM; TGI [12]: > 100 µM; GI50 [13]: > 52.4 µM; TGI [13]: > 90.1 µM
